{"source": "PubChem BioAssay AID1347408", "about": "(Pan Lab, Icahn School of Medicine at Mount Sinai, 2020)", "note": "Records with an inconclusive call do not appear. The source made the active and inactive calls.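 Rule for the calls: active = IC50 half-inhibiting concentration at or below 10 micromolar; inconclusive = IC50 above 10 and up to 20 micromolar; inactive = IC50 above 20 micromolar.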", "data": [{"target": "E3 ubiquitin-protein ligase RBX1 (Homo sapiens) + Cullin-1 (Homo sapiens) (UniProt P62877+Q13616)", "sequence (P62877 whole entry, looked up)": "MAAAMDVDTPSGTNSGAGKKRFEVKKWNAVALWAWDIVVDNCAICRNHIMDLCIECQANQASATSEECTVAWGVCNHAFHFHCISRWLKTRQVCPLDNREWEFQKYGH", "sequence (Q13616 whole entry, looked up)": "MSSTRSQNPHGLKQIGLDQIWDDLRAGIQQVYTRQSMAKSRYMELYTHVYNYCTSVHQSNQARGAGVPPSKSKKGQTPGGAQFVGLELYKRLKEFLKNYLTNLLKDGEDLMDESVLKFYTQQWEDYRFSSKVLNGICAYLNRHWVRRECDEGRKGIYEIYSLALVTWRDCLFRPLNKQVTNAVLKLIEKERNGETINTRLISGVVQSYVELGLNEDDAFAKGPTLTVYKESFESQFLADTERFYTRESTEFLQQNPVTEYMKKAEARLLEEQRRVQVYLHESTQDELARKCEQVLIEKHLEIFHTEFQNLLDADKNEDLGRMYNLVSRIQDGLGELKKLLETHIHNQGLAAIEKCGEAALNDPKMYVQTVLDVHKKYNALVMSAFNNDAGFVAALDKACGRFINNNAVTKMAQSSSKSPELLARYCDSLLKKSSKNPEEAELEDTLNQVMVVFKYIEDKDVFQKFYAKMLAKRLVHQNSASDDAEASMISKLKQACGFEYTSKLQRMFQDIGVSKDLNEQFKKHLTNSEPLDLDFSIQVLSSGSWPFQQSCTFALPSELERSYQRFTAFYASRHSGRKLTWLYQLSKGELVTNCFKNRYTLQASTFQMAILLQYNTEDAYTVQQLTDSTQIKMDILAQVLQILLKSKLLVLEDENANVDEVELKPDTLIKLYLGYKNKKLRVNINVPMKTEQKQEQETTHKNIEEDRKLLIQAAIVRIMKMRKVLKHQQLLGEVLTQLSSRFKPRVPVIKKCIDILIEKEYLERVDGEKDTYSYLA", "assay": "inhibition of cullin E3 di-ubiquitin formation – biochemical, FRET, E1/Cdc34 cascade, dose response (AID 1347408)", "settings": "in vitro di-Ub FRET, E1/Cdc34/ROC1-CUL1 CTD", "values": [{"smiles": "CCOc1ccc2nc3cc(NC(=O)c4ccco4)ccc3c(N)c2c1", "IC50": "4.8 µM"}, {"smiles": "CCCCCCCCCOc1ccc(C#CC(=O)O)cc1", "IC50": "4.2 µM"}, {"smiles": "CNc1ccccc(C(=O)C=Cc2ccc3c(c2)OCO3)c1=O", "IC50": "inactive"}, {"smiles": "Cc1ccc(NC(=O)c2ccc(Cl)cc2Cl)c(S(=O)(=O)O)c1", "IC50": "inactive"}, {"smiles": "NCCCSc1nc2c(c(=O)n1Cc1ccccc1)C1(CCCCC1)Cc1ccccc1-2", "IC50": "inactive"}, {"smiles": "CCNc1ccc(Br)cc(C(=O)/C=C/c2c(Cl)cccc2Cl)c1=O", "IC50": "inactive"}, {"smiles": "Cc1ccc2c(c1)-c1c(c(C(=O)N3CCN(c4cc(C)ccc4C)CC3)nn1C)CS2", "IC50": "inactive"}, {"smiles": "Cc1ccc([C@@H]2Nc3c(ccc(C(=O)O)c3C)[C@@H]3C=CC[C@@H]32)cc1", "IC50": "inactive"}, {"smiles": "COc1ccc(C=C2C(=O)N(Cc3ccco3)C(=O)N(C(C)C)C2=O)cc1", "IC50": "inactive"}, {"smiles": "CCOc1cccc2c1N[C@@H](c1ccc(C(=O)O)cc1)[C@H]1CC=C[C@@H]21", "IC50": "inactive"}, {"smiles": "CN(CCC(=O)C=Cc1ccc(Cl)c(Cl)c1)CCc1ccc2c(c1)OCO2", "IC50": "inactive"}]}]}
